From patent US10870647B2, “Imidazopyridine derivative, method for preparing same, and pharmaceutical composition containing same as active ingredient for preventing or treating cancer” (DAEGU-GYEONGBUK MEDICAL INNOVATION FOUNDATION, priority 2016, dated 2020)

Columns and labels:
Format in all cases: cell-based
[1] = system: A375; assay: Cancer cell proliferation inhibition, CCK-8, 72 hours; settings: Homo sapiens, A-375, 72 h
Experimental: (§1) MTS assay was performed to evaluate the cancer cell proliferation inhibition (cancer cell apoptosis) effect of the compounds of examples of the present invention. Particularly, the assay was performed using the cancer cell lines GIST-T1, GIST-T1/816, GIST-430, GIST-430/654, GIST-R1, GIST-R3, M-NFS-60, RetParental (Ba/F3), Retwt (Ba/F3), RetV804M (Ba/F3), RET (LC2/ad-CDC6), FYN (MCP-1), FYN (FN), MDA-MB-231, Huh7, K562, T315I(Ba/F3), SK-MEL-28 and A375. Cell culture was performed using a medium suitable for each cell line.
(§2) In the meantime, MDA-MB-231 and A375 cells were seeded in a 96well plate at the density of 2×10^3/100 μl/well, which stood for a day for attachment. The culture fluid was eliminated. After removing the culture medium, the medium was replaced with the culture medium containing the compounds of the present invention at 3-times serially diluted 9 concentrations (0.0015-10 μM) and the DMSO control, followed by incubation in a 37° C. CO2 incubator for 72 hours. On the other hand, K-562 and Ba/F3-T315I cells were seeded in a 96-well plate at the density of 1×10^4/90 μl/well. The plate containing K-562 cells was added with the culture medium containing the compounds of the present invention at 3-times serially diluted 9 concentrations (0.015-100 μM) and the DMSO control (10 μl/well). The plate containing Ba/F3-T315I cells was added with the culture medium containing the compounds of the present invention at 5-times serially diluted 9 concentrations (0.000256-100 μM) and the DMSO control (10 μl/well). The final concentration was made 0-10 μM and then the cells were cultured in a 37° C. CO2 incubator for 72 hours.
(§3) A375, K-562 and Ba/F3-T315I cells were added with CCK-8 solution at the concentration of 10 μl/well, followed by orbital shaking for 30 seconds. Then, the cells were cultured in a 37° C. CO2 incubator for 2 hours. OD450 was measured by using a microplate reader. The OD value of the well treated with the culture medium and CCK-8 solution alone was subtracted from the OD value measured above, followed by calculation of IC50 using GraphPad Prism 6 software.

[2] = target: T1, T315I (Ba/F3) (Homo sapiens, UniProt P00519, T315I, cells depend on it); assay: as above; settings: read-out: T315I (Ba/F3) IC50
T1 construct: fused on or other part: P11274 (Breakpoint cluster region protein)
Experimental: as §1, §2, §3

[3] = system: K562; assay: as above; settings: Homo sapiens, K562, 72 h
Experimental: as §1, §2, §3

[4] = system: Huh7; assay: Cancer cell proliferation inhibition, MTS assay, 72 hours; settings: Homo sapiens, Huh-7
Experimental: as §1
(§4) Other cell lines were seeded in a 96-well plate containing the corresponding medium appropriate for each cell line at the density of 3,000 cells/well, followed by culture in a 5% CO2 and 37° C. incubator for 24 hours. The compounds of examples of the present invention were added to each well at the concentration of from the highest volume of 50 μM to every step of serial dilution. The solvent control, dimethylsulfoxide (DMSO), was treated at the same concentration of 0.05% (v/v) as the volume used for the treatment of the compounds above. Each cell line was cultured for 72 hours. To investigate the cell viability, the MTS and PMS (phenazine methosulfate) mixture provided in CellTiter 96® AQuous Non-Radioactive Cell Proliferation Assay Kit (Promega) was added to each cell culture medium, followed by additional culture at 37° C. for 2 hours. Then, OD450 was measured. Based on OD of the solvent control cells not treated with any compounds of the present invention, the cell proliferation inhibition rate was calculated according to the treatment concentration of each compound. At this time, the concentration of each compound that was able to inhibit cancer cell proliferation up to 50% was determined as IC50 (uM). IC50 of each compound was determined with three data sets and calculated by using Prism softwater (version 6.01, GraphPad).

[5] = system: M-NFS-60; assay: Cancer cell proliferation inhibition, CCK-8, 72 hours
Experimental: as §1
M-NFS-60 cell line was cultured in the complete growth medium prepared by adding 10% FBS, 0.05 mM 2-mercaptoethanol and 62 ng of human M-CSF to RPMI. When the confluence reached 80% in T-75 flask, the cells were collected in a 50 ml tube for seeding, followed by centrifugation at 800 rpm for 5 minutes. The cells were suspended in 10 mL of growth medium. The cell number was counted by using a hematocytometer to determine the necessary cell number and the medium volume for seeding. The cells were seeded in a 96-well plate at the density of 20000 cells/well (200 μL/well), followed by stabilization in a 37° C. CO2 incubator, while the compounds of the present invention were prepared. The compounds of the present invention were serially diluted with DMSO at the ratio of 1/3 with setting the maximum concentration at 1968 nM, which were loaded in a new V-bottom 96-well plate, resulting in the preparation of total 11 concentrations including the DMSO control. The cells that had been placed in the incubator were taken out, to which the compounds of the present invention were added (2 μl/well). The plate treated with the compounds was cultured in a 37° C. CO2 incubator for 72 hours. 72 hours later, the plate treated with the compounds was taken out, to which CCK-8 solution was treated (20 μl/well). After well mixing, the plate was further cultured in a 37° C. CO2 incubator for 2 hours. Then, OD450 was measured by using a microplate reader. To obtain accurate results, the wells displaying bubbles were eliminated from the measurement.

[6] = system: MDA-MB-231; assay: Real time cell proliferation, IncuCyte ZOOM, 72 hours; settings: Homo sapiens, MDA-MB-231, 72 h
[7] = system: RET (LC2/ad-CDC6); assay: Cancer cell proliferation inhibition, MTS assay, 72 hours; settings: 72 h
Experimental: as §1, §4

SMILES	IC50 [1]	GI50 [2]	IC50 [3]	IC50 [4]	IC50 [5]	IC50 [6]	IC50 [7]
Cc1ccc(C(=O)Nc2ccc3cccnc3c2)cc1C#Cc1cnc2c(Nc3cnn(C)c3)cccn12 [Example 36, 4-methyl-3-((8-((1-methyl-1H-pyrazol-4-yl)amino)imidazo[1,2-a]pyridin-3-yl)ethynyl)-N-(quinolin-7-yl)benzamide]	> 10 µM	> 10 µM	0.006 µM	0.145 µM	0.00776 µM	> 10 µM	–
COCCn1cc(Nc2cccn3c(C#Cc4cc(C(=O)Nc5ccc(CN6CCN(C)[C@H](C)C6)c(C(F)(F)F)c5)ccc4C)cnc23)cn1 [Example 40, (R)—N-(4-((3,4-dimethylpiperazin-1-yl)methyl)-3-(trifluoromethyl)phenyl)-3-((8-((1-(2-methoxyethyl)-1H-pyrazol-4-yl)amino)imidazo[1,2-a]pyridin-3-yl)ethynyl)-4-methylbenzamide]	0.097 µM	0.0335 µM	0.008 µM	0.101 µM	–	0.23 µM	0.01 µM
COCCCn1cc(Nc2cccn3c(C#Cc4cc(C(=O)Nc5ccc(CN6CCN(C)[C@H](C)C6)c(C(F)(F)F)c5)ccc4C)cnc23)cn1 [Example 42, (R)—N-(4-((3,4-dimethylpiperazin-1-yl)methyl)-3-(trifluoromethyl)phenyl)-3-((8-((1-(3-methoxypropyl)-1H-pyrazol-4-yl)amino)imidazo[1,2-a]pyridin-3-yl)ethynyl)-4-methylbenzamide]	0.163 µM	0.122 µM	0.008 µM	0.1 µM	–	0.32 µM	> 0.01 µM
COCCCn1cc(Nc2cccn3c(C#Cc4cc(C(=O)Nc5ccc(CN6CCC(N(C)C)C6)c(C(F)(F)F)c5)ccc4C)cnc23)cn1 (centres unmarked) [Example 43, N-(4-((3-(dimethylamino)pyrrolidin-1-yl)methyl)-3-(trifluoromethyl)phenyl)-3-((8-((1-(3-methoxypropyl)-1H-pyrazol-4-yl)amino)imidazo[1,2-a]pyridin-3-yl)ethynyl)-4-methylbenzamide]	0.341 µM	0.0597 µM	0.016 µM	0.098 µM	–	0.19 µM	> 0.01 µM
COCCn1cc(Nc2cccn3c(C#Cc4cc(C(=O)Nc5ccc(CN6CCN(C)[C@@H](C)C6)c(C(F)(F)F)c5)ccc4C)cnc23)cn1 [Example 44, (S)—N-(4-((3,4-dimethylpiperazin-1-yl)methyl)-3-(trifluoromethyl)phenyl)-3-((8-((1-(2-methoxyethyl)-1H-pyrazol-4-yl)amino)imidazo[1,2-a]pyridin-3-yl)ethynyl)-4-methylbenzamide]	0.183 µM	0.0422 µM	0.012 µM	0.165 µM	0.0388 µM	0.24 µM	0.01 µM
Cc1ccc(C(=O)Nc2ccc(CN3CCN(C)[C@@H](C)C3)c(C(F)(F)F)c2)cc1C#Cc1cnc2c(Nc3cnn(C)c3)cccn12 [Example 47, (S)—N-(4-((3,4-dimethylpiperazin-1-yl)methyl)-3-(trifluoromethyl)phenyl)-4-methyl-3-((8-((1-methyl-1H-pyrazol-4-yl)amino)imidazo[1,2-a]pyridin-3-yl)ethynyl)benzamide]	0.152 µM	0.025 µM	< 0.001 µM	–	0.0438 µM	0.168 µM	> 0.01 µM
Cc1ccc(C(=O)Nc2ccc(CN3CC[C@@H](N(C)C)C3)c(C(F)(F)F)c2)cc1C#Cc1cnc2c(Nc3cnn(C)c3)cccn12 [Example 50, (R)—N-(4-((3-(dimethylamino)pyrrolidin-1-yl)methyl)-3-(trifluoromethyl)phenyl)-4-methyl-3-((8-((1-methyl-1H-pyrazol-4-yl)amino)imidazo[1,2-a]pyridin-3-yl)ethynyl)benzamide]	0.224 µM	0.0282 µM	< 0.001 µM	0.057 µM	0.0403 µM	0.325 µM	> 0.01 µM
Cc1ccc(C(=O)Nc2ccc(Cl)c(C(F)(F)F)c2)cc1C#Cc1cnc2c(Nc3cnn(C4CCNCC4)c3)cccn12 [Example 63, N-(4-chloro-3-(trifluoromethyl)phenyl)-4-methyl-3-((8-((1-(piperidin-4-yl)-1H-pyrazol-4-yl)amino)imidazo[1,2-a]pyridin-3-yl)ethynyl)benzamide]	1.33 µM	0.374 µM	< 0.001 µM	–	0.0711 µM	1.41 µM	> 0.01 µM
Cc1ccc(C(=O)Nc2ccc(CN3CCN(C)CC3)c(C(F)(F)F)c2)cc1C#Cc1cnc2c(Nc3cccc(C(C)(C)O)n3)cccn12 [Example 64, 3-((8-(6-(2-hydroxypropan-2-yl)pyridin-2-yl)aminoimidazo[1,2-a]pyridin-3-yl)ethynyl)-4-methyl-N-(4-((4-methylpiperazin-1-yl)methyl)-3-(trifluoromethyl)phenyl)benzamide]	0.741 µM	0.075 µM	0.003 µM	–	0.127 µM	0.987 µM	> 0.01 µM
Cc1ccc(C(=O)Nc2ccc(CN3CCN(C)CC3)c(C(F)(F)F)c2)cc1C#Cc1cnc2c(Nc3cc4n(n3)CCNC4)cccn12 [Example 66, 4-methyl-N-(4-((4-methylpiperazin-1-yl)methyl)-3-(trifluoromethyl)phenyl)-3-((8-((4,5,6,7-tetrahydropyrazolo[1,5-a]pyrazin-2-yl)amino)imidazo[1,2-a]pyridin-3-yl)ethynyl)benzamide]	–	0.17 µM	< 0.0015 µM	–	0.0627 µM	0.386 µM	–
Cc1ccc(C(=O)Nc2cccc(C(F)(F)F)c2)cc1C#Cc1cnc2c(Nc3cc4n(n3)CCNC4)cccn12 [Example 67, 4-methyl-3-((8-((4,5,6,7-tetrahydropyrazolo[1,5-a]pyrazin-2-yl)amino)imidazo[1,2-a]pyridin-3-yl)ethynyl)-N-(3-(trifluoromethyl)phenyl)benzamide]	–	0.0401 µM	< 0.0015 µM	0.919 µM	0.0194 µM	0.429 µM	–
COCCn1cc(Nc2cccn3c(C#Cc4cc(C(=O)Nc5cccc(C(F)(F)F)c5)ccc4C)cnc23)cn1 [Example 70]	–	0.0261 µM	< 0.0015 µM	0.848 µM	0.0123 µM	1.16 µM	–
Cc1ccc(C(=O)Nc2cccc(C(F)(F)F)c2)cc1C#Cc1cnc2c(Nc3cnn(CCN(C)C)c3)cccn12 [Example 74]	–	0.0931 µM	< 0.0015 µM	–	0.0214 µM	1.12 µM	–
